# From US11155576B2, “Synthetic peptides, enzymatic formation of pericellular hydrogels/nanofibrils, and methods of use” (BRANDEIS UNIVERSITY, priority 2014, dated 2021)
# Experiments:
# MES-SA cells [1] = experiment: Pericellular hydrogel/nanonets on MES-SA cells (Congo red/DAPI); format: cell-based; conditions: 280 μM, 12 hours
# Method: (§1) FIG. 11 illustrates overlaid and 3D stacked z-scan images of Congo red and DAPI stained MES-SA and MES-SA/Dx5 cells treated with either 280 μM D-2a (upper panel) or medium alone (control, lower panel) for 12 hours. Scale bar=[…]. White dots outline the cells.
# (§2) Cells in exponential growth phase were seeded in a glass bottomed culture chamber at 2×10^4 cells/well. Cells were allowed to attach for 24 hours at 37° C., 5% CO2. The culture medium was removed, and replaced with culture medium containing D-2a at 280 μM. Following 12 hours of incubation, cells were washed 3 times with PBS prior to being stained with 0.1 mg/mL Congo red and 0.6 μM DAPI in PBS buffer (30 minutes at 37° C. in the dark). Next, cells were rinsed three times with PBS, and then kept in PBS for imaging.
# [2] = Cell viability assay (MTT), HeLa; format: cell-based, human; conditions: human, HeLa cells, 48 hour incubation
# Method: (§3) Cells in exponential growth phase were seeded in a 96 well plate at a concentration of 2×10^4 cells/well. The cells were allowed to attach to the wells for 24 hours at 37° C., 5% CO2. The culture medium was removed and 100 μL culture medium containing compounds (immediately diluted from fresh prepared stock solution of 10 mM) at gradient concentrations (0 μM as the control) was placed into each well. After culturing at 37° C., 5% CO2 for 48 hours, each well was added by 10 μL of 5 mg/mL MTT (3-(4,5-dimethylthiazoL-2-yl)-2,5-diphenyltetrazolium bromide), and the plated cells were incubated in the dark for 4 hours. 100 μL 10% SDS with 0.01M HCl was added to each well to stop the reduction reaction and to dissolve the purple. After overnight incubation of the cells at 37° C., the OD at 595 nm of the solution was measured in a microplate reader. Data represent the mean±standard deviation of three independent experiments.
# HeLa cells [3] = experiment: Cell adhesion assay; format: cell-based, human; conditions: 560 μM, trypsinized HeLa cells, at 4 hours
# Method: Cells in exponential growth phase were detached using 0.25% trypsin-EDTA. After neutralizing trypsin by addition of complete culture medium, the cells were collected by centrifuge (1000 rpm, 3 min). The cell pellet was suspended by addition of culture medium to a concentration of 4×10^5 cells/mL. 1 mL of the cell suspension was mixed with 1 mL of 2×D-2a or D-2b containing culture media. The resulting solutions were added into 96 well plate at 100 μL/well. After the desired time of incubation at 37° C., 5% CO2, the solution was gently removed, and then 100 μL of culture medium and 10 μL of 5 mg/mL MTT were added to each well. Following 4 hour incubation in the dark, 100 μL of 10% SDS with 0.01M HCl was added to each well to stop the reduction reaction and to dissolve the purple. After incubation of the cells at 37° C. for overnight, the viability was measured. Data represent the mean±standard deviation of three independent experiments.
# HeLa cells [4] = experiment: Cell migration (wound healing) assay; format: cell-based, human; conditions: 18 hours
# Method: Cell migration was evaluated using the wound healing assay with the CytoSelect™ Wound Healing Assay Kit (Cell Biolabs, Inc). Wound healing inserts with width at 0.9 mm were placed into 24-well plates. 0.8 mL of HeLa cells at 2×10^5 cells/mL were added to either side of the insert and incubated overnight to form a confluent layer. Inserts were then carefully removed to expose the gap. After removing the culture medium, new medium containing the molecules was added to cells. The cells were next incubated at 37° C., 5% CO2 for 18 hours. Images of gaps before and after the addition of the molecules were captured using a microscope at a magnification of ×40. Cell migration was quantified by measuring the change in gap distance.
# MES-SA/dx5 cells [5] = experiment: Cell viability assay (MTT), MES-SA/dx5; format: cell-based, human; conditions: 280 μM; multi-drug resistant cells
# Method: as §3
# HeLa cells [6] = experiment: Western blot of tubulin in pericellular nanonets versus CM; format: cell-based, human; conditions: nanonets after 3 or 6 hours of incubation versus CM collected at 24 hours
# Method: To select the optimal incubation time for the collection of nanonets/hydrogel, HeLa cells were incubated with D-2a (for 3, 6, or 9 hours, respectively) to allow nanonet formation. The amount of tubulin (an indicator of autolysis) present in the nanonets/hydrogels at various time points was evaluated by Western blot and compared to the amount of tubulin present in conditioned media (“CM”) collected following 24 hours of incubation (FIG. 33A). […] The results also indicate the cell compatibility of the incubation and collection process for nanonets/hydrogel.
# MES-SA/Dx5 cells [7] = experiment: MES-SA/Dx5 tumor model in nude mice; format: in vivo; conditions: subcutaneous and peritumoral, 800 μg dose (~32 mg/kg), 6 times every 3 days
# Method: Nine nude mice were used for experiments to define the tumor growth curve. 1×10^7 MES-SA/Dx5 cells were implanted into the mice via […] using a 25 G needle. Three of the tumor-bearing mice were used to define the tumor growth curve with control treatment, and six mice were given D-2a. The mice were injected subcutaneously and peritumorally (6 times, every 3 days starting at Day 1) with either 100 μL of D-2a at 8 μg/μL (800 μg dose or ˜32 mg/kg) in PBS buffer (experimental) or 100 μL of PBS buffer (control). Tumor volume measurements were made every three days, also starting on Day 1. Volume of tumors was measured by caliper.
# active Caspase 3 = experiment: Apoptosis pathway assay (ELISA), active Caspase 3; format: cell-based, human; conditions: HeLa cells, 280 μM, at 24 and 32 hours of incubation
# Method: (§4) The apoptosis pathway was evaluated using the PathScan® Apoptosis Multi-Target Sandwich ELISA Kit (Cell Signaling Technology) following the supplied protocol. Cells in exponential growth phase were seeded in a 6 cm Petri dish at a concentration of 10×10^5 cells/dish (5 dishes). Cells were allowed to attach to the wells for 24 hours at 37° C., 5% CO2. The culture medium was removed and 5 mL medium containing 280 μM D-2a (immediately diluted from fresh prepared stock solution of 11.2 mM) was placed into each dish. At 0, 6, 12, 24, or 32 hours, the medium was removed and cells were washed three times with cold PBS buffer. 0.9 mL lysis buffer was used to lyse cells in each dish, and 0.9 mL of diluents buffer was used to dilute each of the cell lysate. The lysate was incubated in the provided 96 well plate at 4° C. for 24 hours.
# (§5) ELISA was used to quantify the amount of several key apoptosis signal molecules over time in the HeLa cells incubated with 280 μM D-2a (FIG. 3E).
# MES-SA/dx5 cells [8] = experiment: Pericellular hydrogel/nanonets on MES-SA/dx5 cells (Congo red/DAPI); format: cell-based, human; conditions: 280 μM, 12 hours
# Method: as §1, §2
# active PARP = experiment: Apoptosis pathway assay (ELISA), active PARP; format: cell-based, human; conditions: HeLa cells, 280 μM, at 24 and 32 hours of incubation
# Method: as §4, §5
# MES-SA cells [9] = experiment: Cell viability assay (MTT), MES-SA; format: cell-based; conditions: 280 μM
# Method: as §3
smiles,measurement,setting,value
"O=C(Cc1ccc2ccccc2c1)N[C@H](Cc1ccccc1)C(=O)N[C@H](Cc1ccccc1)C(=O)N[C@H](Cc1ccc(OP(=O)(O)O)cc1)C(=O)O [D-2a, Nap-D-Phe-D-Phe-D-Tyr(PO3H2)]",Pericellular hydrogel/nanonets formation,MES-SA cells [1],forms pericellular hydrogel/nanonets
same,"viability at 48 h, 280 µM",[2],~10%
same,Cells reattached to surface,HeLa cells [3],less than 5%
same,Cell migration (gap),HeLa cells [4]; 280 μM,gaps larger than those of untreated cells
same,Cell migration (gap),HeLa cells [4]; 560 μM,gaps larger than those of untreated cells
same,Growth inhibition,MES-SA/dx5 cells [5],inhibits the growth
same,Amount of tubulin (indicator of autolysis) in nanonets,HeLa cells [6],contain less tubulin than CM
same,Day by which statistically significant differences between experimental and control groups were observed,MES-SA/Dx5 cells [7],≤ 13 days
same,Relative tumor volume / tumor growth,MES-SA/Dx5 cells [7],inhibited tumor growth
same,Amount of active Caspase 3,active Caspase 3,increase significantly
same,Pericellular hydrogel/nanonets formation,MES-SA/dx5 cells [8],forms pericellular hydrogel/nanonets
same,Amount of active PARP,active PARP,increase significantly
same,Growth inhibition,MES-SA cells [9],inhibits the growth
